Our source for the IC50 and Ki values is ChEMBL document CHEMBL1909046, “DrugMatrix in vitro pharmacology data”.

For orientation: IC50 means the midpoint of a concentration-inhibition curve.

The target in assay [1] is T1, Alpha-2C adrenergic receptor (Homo sapiens, UniProt P18825).
T1 sequence (P18825 whole entry): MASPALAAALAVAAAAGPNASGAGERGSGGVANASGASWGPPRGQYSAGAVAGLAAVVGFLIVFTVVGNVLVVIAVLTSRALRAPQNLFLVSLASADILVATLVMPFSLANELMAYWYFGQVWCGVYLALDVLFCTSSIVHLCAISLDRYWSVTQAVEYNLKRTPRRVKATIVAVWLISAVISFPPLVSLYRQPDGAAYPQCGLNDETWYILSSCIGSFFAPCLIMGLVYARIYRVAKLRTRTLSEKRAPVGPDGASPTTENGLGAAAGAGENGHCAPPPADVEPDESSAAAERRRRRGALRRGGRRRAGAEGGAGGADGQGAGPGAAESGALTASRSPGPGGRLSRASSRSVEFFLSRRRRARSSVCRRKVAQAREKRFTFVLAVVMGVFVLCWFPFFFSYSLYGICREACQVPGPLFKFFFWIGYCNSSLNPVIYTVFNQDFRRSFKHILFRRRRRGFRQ
The assay can be described thus: DRUGMATRIX: Adrenergic Alpha-2C radioligand binding (ligand: [3H] MK-912). Format: cell membranes, Sf9, Membrane. The settings on record: sf9.

The next assay has as its target T2, Calcitonin receptor (Homo sapiens, UniProt P30988). Further: in other assays of this panel Not Active means under 50% inhibition at 10 µM.
T2 sequence (P30988 whole entry): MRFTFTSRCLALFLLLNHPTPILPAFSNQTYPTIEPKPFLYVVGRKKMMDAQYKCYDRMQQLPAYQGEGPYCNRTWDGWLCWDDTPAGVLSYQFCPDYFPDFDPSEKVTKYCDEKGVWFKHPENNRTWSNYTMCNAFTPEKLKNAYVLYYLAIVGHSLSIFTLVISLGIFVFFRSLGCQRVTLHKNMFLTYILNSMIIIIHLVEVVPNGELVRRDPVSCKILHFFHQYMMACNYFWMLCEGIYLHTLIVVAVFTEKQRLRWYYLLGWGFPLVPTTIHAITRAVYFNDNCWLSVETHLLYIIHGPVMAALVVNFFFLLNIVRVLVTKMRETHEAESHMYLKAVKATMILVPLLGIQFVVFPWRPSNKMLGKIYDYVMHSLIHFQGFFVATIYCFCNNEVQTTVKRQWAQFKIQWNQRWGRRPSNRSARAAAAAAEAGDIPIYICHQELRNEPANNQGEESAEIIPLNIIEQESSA
Format: cell membranes, Membrane. The settings on record: t47d.

The nature of assay [2]: DRUGMATRIX: Sigma2 radioligand binding (ligand: [3H] Ifenprodil). Conditions: Not Active = under 50% inhibition at 10 µM. The assay is classed as cell membranes, Rattus norvegicus, Wistar, Brain, Membrane.
The nature of assay [3]: DRUGMATRIX: Glutamate, Kainate radioligand binding (ligand: [3H] Kainic acid). The settings on record: Not Active = under 50% inhibition at 10 µM. Format: cell membranes, Rattus norvegicus, Wistar, Brain, Membrane.
In the next assay the target is T3, Interstitial collagenase (Homo sapiens, UniProt P03956).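 Further: MMP-1 enzyme inhibition assay using a peptide substrate; in other assays of this panel Not Active means under 50% inhibition at 10 µM.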
T3 sequence (P03956 whole entry): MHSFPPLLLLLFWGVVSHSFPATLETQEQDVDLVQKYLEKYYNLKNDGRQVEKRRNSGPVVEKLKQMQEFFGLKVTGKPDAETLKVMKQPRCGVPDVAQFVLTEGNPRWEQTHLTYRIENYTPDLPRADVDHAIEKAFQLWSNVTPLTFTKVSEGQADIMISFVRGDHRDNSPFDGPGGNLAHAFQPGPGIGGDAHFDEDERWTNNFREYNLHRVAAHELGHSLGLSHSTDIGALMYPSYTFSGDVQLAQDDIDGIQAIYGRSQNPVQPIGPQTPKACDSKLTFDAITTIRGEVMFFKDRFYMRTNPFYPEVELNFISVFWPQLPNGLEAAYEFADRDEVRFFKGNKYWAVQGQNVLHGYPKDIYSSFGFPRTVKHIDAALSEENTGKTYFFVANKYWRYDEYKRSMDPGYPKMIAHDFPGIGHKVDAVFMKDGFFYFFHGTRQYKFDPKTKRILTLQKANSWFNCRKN
The assay is classed as tissue-based, Rheumatoid synovial fibroblasts.

For assay [4], the target named is Receptor tyrosine-protein kinase erbB-2 (Homo sapiens, UniProt P04626). Kind of assay: biochemical. The assay is classed as cell-based, Insect cells.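 Further: inhibition of HER2 kinase enzyme activity, measured with Poly(Glu:Tyr) as the phosphorylation substrate; in other assays of this panel Not Active means under 50% inhibition at 10 µM.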
Sequence of Receptor tyrosine-protein kinase erbB-2 (P04626 whole entry): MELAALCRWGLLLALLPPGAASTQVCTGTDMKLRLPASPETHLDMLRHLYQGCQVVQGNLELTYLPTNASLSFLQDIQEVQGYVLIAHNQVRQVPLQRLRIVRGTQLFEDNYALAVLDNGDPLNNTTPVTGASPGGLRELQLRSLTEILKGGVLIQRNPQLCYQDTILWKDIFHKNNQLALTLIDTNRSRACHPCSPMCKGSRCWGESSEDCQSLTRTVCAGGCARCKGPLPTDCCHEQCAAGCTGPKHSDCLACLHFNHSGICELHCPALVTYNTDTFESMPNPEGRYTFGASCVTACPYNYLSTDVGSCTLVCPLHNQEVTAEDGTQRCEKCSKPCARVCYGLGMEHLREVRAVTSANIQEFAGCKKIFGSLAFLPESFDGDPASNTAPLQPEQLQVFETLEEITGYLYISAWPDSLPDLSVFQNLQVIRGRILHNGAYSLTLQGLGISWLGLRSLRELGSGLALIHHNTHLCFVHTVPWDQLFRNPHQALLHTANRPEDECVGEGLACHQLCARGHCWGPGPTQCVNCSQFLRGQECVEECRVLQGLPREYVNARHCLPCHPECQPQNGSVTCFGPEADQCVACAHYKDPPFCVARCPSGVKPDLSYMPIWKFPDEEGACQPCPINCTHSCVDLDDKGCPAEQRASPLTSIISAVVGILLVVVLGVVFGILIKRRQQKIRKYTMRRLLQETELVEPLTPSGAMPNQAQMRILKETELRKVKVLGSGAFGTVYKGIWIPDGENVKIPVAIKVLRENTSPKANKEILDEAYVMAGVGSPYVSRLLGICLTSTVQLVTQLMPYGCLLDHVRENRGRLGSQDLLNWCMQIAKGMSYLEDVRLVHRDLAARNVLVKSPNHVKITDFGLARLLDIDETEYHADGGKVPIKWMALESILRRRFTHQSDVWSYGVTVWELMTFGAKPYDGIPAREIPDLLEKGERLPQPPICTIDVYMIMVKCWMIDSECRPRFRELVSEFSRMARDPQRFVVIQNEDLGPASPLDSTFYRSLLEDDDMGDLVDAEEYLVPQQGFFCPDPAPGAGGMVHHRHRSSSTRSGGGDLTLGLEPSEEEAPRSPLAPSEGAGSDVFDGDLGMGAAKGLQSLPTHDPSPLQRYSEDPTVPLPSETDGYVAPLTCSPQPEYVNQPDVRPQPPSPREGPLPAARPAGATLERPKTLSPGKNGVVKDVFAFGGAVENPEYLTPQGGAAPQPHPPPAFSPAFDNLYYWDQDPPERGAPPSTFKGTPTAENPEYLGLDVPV

For `C=C1/C(=C\C=C2/CCC[C@]3(C)[C@@H]([C@H](C)CCCC(C)C)CC[C@@H]23)C[C@@H](O)C[C@@H]1O` [ALFACALCIDOL], the IC50 entry (in assay [1]; on Calcitonin receptor; in assay [2]; in assay [3]; on Interstitial collagenase; in assay [4] (insect cells)) was “Not Active” each time. Moreover, the Ki entry in assay [2] and in assay [3] was “Not Active” each time.

For `CCCCCC[C@H]1C(=O)O[C@H](C)[C@H](NC(=O)c2cccc(NC=O)c2O)C(=O)O[C@@H](C)[C@@H]1OC(=O)CC(C)C` [ANTIMYCIN A], the IC50 result (in assay [1]; on Calcitonin receptor; in assay [2]; in assay [3]; against Interstitial collagenase; in assay [4] (insect cells)) was “Not Active” in each case. The Ki entry in assay [2] and in assay [3] was “Not Active” each time.

With `C[C@@H]1CC[C@H]2[C@@H](C)C(=O)O[C@@H]3O[C@@]4(C)CC[C@@H]1[C@]32OO4` [ARTEMISININ], the IC50 result (in assay [1]; at Calcitonin receptor; in assay [2]; in assay [3]; at Interstitial collagenase; in assay [4] (insect cells)) was “Not Active” throughout. Besides, the Ki result in assay [2] and in assay [3] was “Not Active” each time.

For `CO[C@H]1[C@@H](O)[C@H](N)[C@@H](O[C@H]2O[C@H]([C@H](C)N)CC[C@H]2N)[C@H](O)[C@@H]1N(C)C(=O)CN` [ASTROMICIN], the IC50 result (in assay [1]; at Calcitonin receptor; in assay [2]; in assay [3]; at Interstitial collagenase; in assay [4] (insect cells)) was “Not Active” throughout. The Ki result in assay [2] and in assay [3] was “Not Active” in each case.

Turning to `[N-]=[N+]=CC(=O)OC[C@H](N)C(=O)O` [AZASERINE], the IC50 result (in assay [1]; at Calcitonin receptor; in assay [2]; in assay [3]; on Interstitial collagenase; in assay [4] (insect cells)) was “Not Active” in each case. Besides, the Ki entry in assay [2] and in assay [3] was “Not Active” in each case.

On to `CC[C@H]1OC(=O)[C@H](C)[C@@H](O[C@H]2C[C@@](C)(OC)[C@@H](O)[C@H](C)O2)[C@H](C)[C@@H](O[C@@H]2O[C@H](C)C[C@H](N(C)C)[C@H]2O)[C@](C)(O)C[C@@H](C)CN(C)[C@H](C)[C@@H](O)[C@]1(C)O` [AZITHROMYCIN], for which the IC50 result (in assay [1]; at Calcitonin receptor; in assay [2]; in assay [3]; at Interstitial collagenase; in assay [4] (insect cells)) was “Not Active” throughout. Besides, the Ki entry in assay [2] and in assay [3] was “Not Active” each time.

For the compound `CC(C)(C)c1ccc(S(=O)(=O)/C=C/C#N)cc1` [BAY-11-7085], the IC50 entry (in assay [1]; on Calcitonin receptor; in assay [2]; in assay [3]; against Interstitial collagenase; in assay [4] (insect cells)) was “Not Active” throughout. The Ki entry in assay [2] and in assay [3] was “Not Active” throughout.

As to `CCc1oc2ccccc2c1C(=O)c1cc(Br)c(O)c(Br)c1` [BENZBROMARONE], the IC50 entry (in assay [1]; at Calcitonin receptor; in assay [2]; in assay [3]; at Interstitial collagenase; in assay [4] (insect cells)) was “Not Active” throughout. In addition, the Ki result in assay [2] and in assay [3] was “Not Active” throughout.

Take `O=c1cc(-c2ccccc2)oc2ccc3ccccc3c12` [BETA-NAPHTHOFLAVONE]: the IC50 entry (in assay [1]; on Calcitonin receptor; in assay [2]; in assay [3]; on Interstitial collagenase; in assay [4] (insect cells)) was “Not Active” each time. Besides, the Ki entry in assay [2] and in assay [3] was “Not Active” each time.

In the case of `CS(=O)(=O)OCCCCOS(C)(=O)=O` [BUSULFAN], the IC50 entry (in assay [1]; at Calcitonin receptor; in assay [2]; in assay [3]; at Interstitial collagenase; in assay [4] (insect cells)) was “Not Active” in each case. Also, the Ki result in assay [2] and in assay [3] was “Not Active” in each case.

With `O=C(/C=C/c1ccc(O)c(O)c1)OCCc1ccccc1` [CAFFEIC ACID PHENETHYL ESTER], the IC50 result was “Not Active” in assay [1]; “Not Active” on Calcitonin receptor; “Not Active” in assay [2]; “Not Active” in assay [3]; “Not Active” at Interstitial collagenase; 1330 nM in assay [4] (read-out: IC50). The Ki result in assay [2] and in assay [3] was “Not Active” throughout.

`COc1cc(CNC(=O)CCCC/C=C/C(C)C)ccc1O` [CAPSAICIN]: the IC50 result (in assay [1]; at Calcitonin receptor; in assay [2]; in assay [3]; at Interstitial collagenase; in assay [4] (insect cells)) was “Not Active” each time. In addition, the Ki entry in assay [2] and in assay [3] was “Not Active” each time.

Regarding `NC(=O)N1c2ccccc2C=Cc2ccccc21` [CARBAMAZEPINE], the IC50 result (in assay [1]; at Calcitonin receptor; in assay [2]; in assay [3]; against Interstitial collagenase; in assay [4] (insect cells)) was “Not Active” in each case. In addition, the Ki entry in assay [2] and in assay [3] was “Not Active” each time.

Turning to `CCOC(=O)n1ccn(C)c1=S` [CARBIMAZOLE], the IC50 entry (in assay [1]; at Calcitonin receptor; in assay [2]; in assay [3]; on Interstitial collagenase; in assay [4] (insect cells)) was “Not Active” in each case. Moreover, the Ki result in assay [2] and in assay [3] was “Not Active” each time.

As to `Oc1ccccc1O` [CATECHOL], the concentration for half-maximal inhibition (IC50) result (in assay [1]; on Calcitonin receptor; in assay [2]; in assay [3]; against Interstitial collagenase; in assay [4] (insect cells)) was “Not Active” throughout. Besides, the Ki result in assay [2] and in assay [3] was “Not Active” throughout.

Regarding `CO[C@@]1(NC(=O)CSCC#N)C(=O)N2C(C(=O)O)=C(CSc3nnnn3C)CS[C@@H]21` [CEFMETAZOLE], the half-inhibitory concentration (IC50) result (in assay [1]; at Calcitonin receptor; in assay [2]; in assay [3]; against Interstitial collagenase; in assay [4] (insect cells)) was “Not Active” throughout. Further, the Ki result in assay [2] and in assay [3] was “Not Active” in each case.

`CN(C(=O)CCCOc1ccc2[nH]c(=O)ccc2c1)C1CCCCC1` [CILOSTAMIDE]: the IC50 entry (in assay [1]; at Calcitonin receptor; in assay [2]; in assay [3]; against Interstitial collagenase; in assay [4] (insect cells)) was “Not Active” throughout. Further, the Ki result in assay [2] and in assay [3] was “Not Active” each time.

Consider `CC(C)(Oc1ccc(C2CC2(Cl)Cl)cc1)C(=O)O` (configuration not stated) [CIPROFIBRATE], for which the IC50 result (in assay [1]; at Calcitonin receptor; in assay [2]; in assay [3]; on Interstitial collagenase; in assay [4] (insect cells)) was “Not Active” throughout. For the same compound, the Ki entry in assay [2] and in assay [3] was “Not Active” throughout.

Turning to `Nc1nc(Cl)nc2c1ncn2[C@H]1C[C@H](O)[C@@H](CO)O1` [CLADRIBINE], the half-maximal inhibitory concentration (IC50) result (in assay [1]; on Calcitonin receptor; in assay [2]; in assay [3]; on Interstitial collagenase; in assay [4] (insect cells)) was “Not Active” each time. Moreover, the Ki entry in assay [2] and in assay [3] was “Not Active” throughout.
